Source: patent US20150197433A1, “Compositions and methods for treating toilets” (Integrated Chemical Technologies, Inc., priority 2014, published 2015)

System: urease enzyme
Test: Testing Glycine Hydroxamate: ammonia odor of treated water loaded with urine and fecal matter
Conditions: for odor of ammonia: 0.04 grams in 200 ml water with bronopol, citric acid, sodium bicarbonate, sulfamic acid, fragrance, approximately 80° F., after 7 days
Method: To each of two flask, 200 ml of distilled water was combined with 0.04 grams of bronopol, 0.04 grams of either acetylhydroxamic acid or 0.04 grams of glycine hydroxamate, 0.10 grams of citric acid, 0.023 grams sodium bicarbonate, 0.027 grams of sulfamic acid, and 0.04 grams of mulberry fragrance. To each sample, 9 ml of urine and 1.5 grams of fecal matter was added and swirled.

Compound | odor of ammonia | performance compared with acetylhydroxamic acid (under test conditions)
CC(=O)NO [acetylhydroxamic acid, reference compound] | no detectable odor of ammonia | 
NCC(=O)NO [glycine hydroxamate] | no detectable odor of ammonia | comparable to acetylhydroxamic acid
